Source: PubChem BioAssay AID248 (DTP/NCI, 2004)
“And” between values parts separate entries of the source, which are not always exact repeats. Equal entries are not always repeated. Toxic doses and inconclusive results are not listed.

System: L1210 leukemia ip in BDF1 mice, survival T/C
Assay: NCI In Vivo Anticancer Drug Screen. Data for tumor model L1210 Leukemia (intraperitoneal) in B6D2F1 (BDF1) mice
Conditions: endpoint: mean survival time, higher = longer survival
Outline: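 Antitumor effect is assessed in tumor-bearing animals. Survival in the compound arm is compared with a vehicle-dosed control arm and expressed as their quotient.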

[1] = dose: 50.0 mg/kg/injection, schedule: Q01DX001 (ip), vehicle: carboxymethylcellulose (CMC)
[2] = dose: 100.0 mg/kg/injection, schedule: Q04DX003 (ip), vehicle: saline
[3] = dose: 200.0 mg/kg/injection, schedule: Q04DX003 (ip), vehicle: saline
[4] = dose: 400.0 mg/kg/injection, schedule: Q04DX003 (ip), vehicle: saline
[5] = dose: 100.0 mg/kg/injection, schedule: Q01DX001 (ip), vehicle: saline
[6] = dose: 200.0 mg/kg/injection, schedule: Q01DX001 (ip), vehicle: saline
[7] = dose: 400.0 mg/kg/injection, schedule: Q01DX001 (ip), vehicle: saline

SMILES: COC(=O)c1ccc(N=Nc2ncc(CCNC(=O)C(F)(F)F)[nH]2)cc1
- T/C (dose: 100.0 mg/kg/injection, schedule: Q01DX001 (ip), vehicle: saline with Tween-80): 97 % of control
- T/C (dose: 200.0 mg/kg/injection, schedule: Q01DX001 (ip), vehicle: saline with Tween-80): 96 % of control
- T/C (dose: 400.0 mg/kg/injection, schedule: Q01DX001 (ip), vehicle: saline with Tween-80): 111 % of control

SMILES: O=C(c1ccccc1)c1ccc(C2CCCCC2)cc1
- T/C [1]: 98 % of control
- T/C (dose: 100.0 mg/kg/injection, schedule: Q01DX001 (ip), vehicle: carboxymethylcellulose (CMC)): 104 % of control
- T/C (dose: 200.0 mg/kg/injection, schedule: Q01DX001 (ip), vehicle: carboxymethylcellulose (CMC)): 98 % of control
- T/C (dose: 400.0 mg/kg/injection, schedule: Q01DX001 (ip), vehicle: carboxymethylcellulose (CMC)): 100 % of control

SMILES: CC(C)OP(=O)(CCCCCCCCCCP(=O)(OC(C)C)OC(C)C)OC(C)C
- T/C (dose: 100.0 mg/kg/injection, schedule: Q04DX002 (ip), vehicle: saline): 113 % of control
- T/C (dose: 200.0 mg/kg/injection, schedule: Q04DX002 (ip), vehicle: saline): 102 % of control
- T/C (dose: 400.0 mg/kg/injection, schedule: Q04DX002 (ip), vehicle: saline): 98 % of control

SMILES: CCOC(=O)c1cnc(C)nc1C
- T/C (dose: 100.0 mg/kg/injection, schedule: Q01DX009 (ip), vehicle: saline): 95 % of control
- T/C [2]: 103 % of control
- T/C (dose: 200.0 mg/kg/injection, schedule: Q01DX009 (ip), vehicle: saline): 100 % of control
- T/C [3]: 98 % of control
- T/C (dose: 400.0 mg/kg/injection, schedule: Q01DX009 (ip), vehicle: saline): 95 % of control
- T/C [4]: 98 % of control

SMILES: CCCCCCCCCCCCCC(CCCCCC)c1ccccc1 (stereo unspecified)
- T/C (dose: 100.0 mg/kg/injection, schedule: Q01DX001 (ip), vehicle: saline + alcohol): 119 % of control
- T/C (dose: 200.0 mg/kg/injection, schedule: Q01DX001 (ip), vehicle: saline + alcohol): 106 % of control
- T/C (dose: 400.0 mg/kg/injection, schedule: Q01DX001 (ip), vehicle: saline + alcohol): 95 % of control

SMILES: NCCCN=C(N)C(N)=NCCCN
- T/C [2]: 98 % of control
- T/C [3]: 95 % of control
- T/C [4]: 104 % of control

SMILES: c1ccc(-c2nnc3oc(-c4ccco4)nn23)cc1
- T/C (dose: 100.0 mg/kg/injection, schedule: Q01DX009 (ip), vehicle: saline with Tween-80): 100 % of control
- T/C (dose: 100.0 mg/kg/injection, schedule: Q04DX003 (ip), vehicle: saline with Tween-80): 96 % of control
- T/C (dose: 200.0 mg/kg/injection, schedule: Q01DX009 (ip), vehicle: saline with Tween-80): 101 % of control
- T/C (dose: 200.0 mg/kg/injection, schedule: Q04DX003 (ip), vehicle: saline with Tween-80): 102 % of control
- T/C (dose: 400.0 mg/kg/injection, schedule: Q01DX009 (ip), vehicle: saline with Tween-80): 101 % of control
- T/C (dose: 400.0 mg/kg/injection, schedule: Q04DX003 (ip), vehicle: saline with Tween-80): 94 % of control

SMILES: Nc1nc(N)c(-c2ccc(Cl)cc2)c(/C=C/c2ccc([N+](=O)[O-])cc2)n1
- T/C (dose: 50.0 mg/kg/injection, schedule: Q01DX001 (ip), vehicle: saline): 104 % of control
- T/C [5]: 93 % of control
- T/C [6]: 93 % of control
- T/C [7]: 96 % of control

SMILES: CC(=O)C1(O)Cc2c(O)c3c(c(O)c2C(OC2CC(N)C(O)C(C)O2)C1)C(=O)c1ccccc1C3=O (stereo unspecified)
- T/C (dose: 0.1 mg/kg/injection, schedule: Q01DX009 (ip), vehicle: saline): 119 % of control
- T/C (dose: 0.8 mg/kg/injection, schedule: Q01DX009 (ip), vehicle: saline): 92 % of control

SMILES: O=C(O)c1ccc([N+](=O)[O-])cc1S(=O)(=O)O
- T/C [5]: 102 % of control
- T/C [6]: 102 % of control
- T/C [7]: 100 % of control

SMILES: NS(=O)(=O)c1ncnc2nc[nH]c12
- T/C (dose: 5.0 mg/kg/injection, schedule: Q01DX Z (ip), vehicle: methylcellulose (MC)): 108 % of control
- T/C (dose: 10.0 mg/kg/injection, schedule: Q01DX Z (ip), vehicle: methylcellulose (MC)): 109 % of control
- T/C (dose: 22.0 mg/kg/injection, schedule: Q01DX001 (ip), vehicle: carboxymethylcellulose (CMC)): 109 % of control and 117 % of control
- T/C (dose: 22.0 mg/kg/injection, schedule: Q01DX Z (ip), vehicle: carboxymethylcellulose (CMC)): 124 % of control
- T/C (dose: 24.75 mg/kg/injection, schedule: Q01DX009 (ip), vehicle: saline): 121 % of control
- T/C (dose: 25.0 mg/kg/injection, schedule: Q04DX003 (ip), vehicle: saline): 117 % of control
- T/C (dose: 30.0 mg/kg/injection, schedule: Q04DX003 (ip), vehicle: saline): 121 % of control
- T/C (dose: 33.0 mg/kg/injection, schedule: Q01DX001 (ip), vehicle: carboxymethylcellulose (CMC)): 107 % of control and 109 % of control
- T/C (dose: 33.0 mg/kg/injection, schedule: Q01DX Z (ip), vehicle: carboxymethylcellulose (CMC)): 120 % of control
- T/C (dose: 37.5 mg/kg/injection, schedule: Q01DX009 (ip), vehicle: saline): 119 % of control
- T/C [1]: 114 % of control and 119 % of control
- T/C (dose: 50.0 mg/kg/injection, schedule: Q04DX003 (ip), vehicle: saline): 120 % of control
- T/C (dose: 66.0 mg/kg/injection, schedule: Q04DX003 (ip), vehicle: saline): 114 % of control
- T/C (dose: 75.0 mg/kg/injection, schedule: Q01DX001 (ip), vehicle: carboxymethylcellulose (CMC)): 117 % of control
- T/C (dose: 75.0 mg/kg/injection, schedule: Q01DX009 (ip), vehicle: saline with Tween-80): 101 % of control
- T/C (dose: 75.0 mg/kg/injection, schedule: Q01DX Z (ip), vehicle: carboxymethylcellulose (CMC)): 152 % of control and 159 % of control and 165 % of control
- T/C [5]: 115 % of control
- T/C (dose: 114.0 mg/kg/injection, schedule: Q01DX Z (ip), vehicle: carboxymethylcellulose (CMC)): 93 % of control
- T/C (dose: 200.0 mg/kg/injection, schedule: Q01DX Z (ip), vehicle: methylcellulose (MC)): 113 % of control
